Results reported in PMC5064002, “Sintokamide A Is a Novel Antagonist of Androgen Receptor That Uniquely Binds Activation Function-1 in Its Amino-terminal Domain” (The Journal of Biological Chemistry, 2016).

How the values were obtained:
recombinant AR LBD = molecular target: T1, recombinant AR LBD (Rattus norvegicus, UniProt P15207); experiment: Fluorescence polarization competition assay (Androgen Receptor Competitor Assay); format: binding; settings: AR LBD 25 nM, 1 nM Fluormone AL Green; SINT1 and EPI-002 tested at 0.5–50 μM
T1 construct: purchased Invitrogen
T1 sequence (P15207 651-882 limits assumed): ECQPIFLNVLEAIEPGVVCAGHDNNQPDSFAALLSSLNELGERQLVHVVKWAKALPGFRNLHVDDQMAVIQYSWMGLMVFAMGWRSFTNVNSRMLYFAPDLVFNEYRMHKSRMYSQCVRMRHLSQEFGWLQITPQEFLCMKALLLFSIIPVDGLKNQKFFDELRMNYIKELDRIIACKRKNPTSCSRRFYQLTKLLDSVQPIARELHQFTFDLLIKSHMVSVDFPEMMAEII
Protocol: The Androgen Receptor Competitor Assay (Green) kit (Invitrogen) was used. […] The reactions with serial dilutions of test compounds were completed in 40-μl aliquots in triplicates. Displacement of Fluormone AL Green from AR LBD by the test compounds was measured by the change in fluorescence polarization using Infinite® M1000 (Tecan) with excitation at 470 nm and emission at 535 nm.
To determine whether the mechanism of action of SINT1 to inhibit androgen-induced AR transcriptional activity was mediated by binding to AR LBD, a fluorescence polarization competition assay was used. This assay uses recombinant AR LBD to reveal whether a test compound competes for ligand binding of Fluoromone that binds to this domain.

AR-V567es = molecular target: T2, AR-V567es (Homo sapiens, UniProt P10275); experiment: Transcriptional activity of AR splice variant, PB-luciferase in COS-1 cells; format: cell-based; settings: for AR-V567es transcriptional activities (PB-luciferase): COS-1, 20 μM SINT1, 25 μM EPI-002
T2 construct: expressed in transfected cells; host or cells: COS-1
T2 sequence (P10275 with tags, fused parts or gaps limits assumed): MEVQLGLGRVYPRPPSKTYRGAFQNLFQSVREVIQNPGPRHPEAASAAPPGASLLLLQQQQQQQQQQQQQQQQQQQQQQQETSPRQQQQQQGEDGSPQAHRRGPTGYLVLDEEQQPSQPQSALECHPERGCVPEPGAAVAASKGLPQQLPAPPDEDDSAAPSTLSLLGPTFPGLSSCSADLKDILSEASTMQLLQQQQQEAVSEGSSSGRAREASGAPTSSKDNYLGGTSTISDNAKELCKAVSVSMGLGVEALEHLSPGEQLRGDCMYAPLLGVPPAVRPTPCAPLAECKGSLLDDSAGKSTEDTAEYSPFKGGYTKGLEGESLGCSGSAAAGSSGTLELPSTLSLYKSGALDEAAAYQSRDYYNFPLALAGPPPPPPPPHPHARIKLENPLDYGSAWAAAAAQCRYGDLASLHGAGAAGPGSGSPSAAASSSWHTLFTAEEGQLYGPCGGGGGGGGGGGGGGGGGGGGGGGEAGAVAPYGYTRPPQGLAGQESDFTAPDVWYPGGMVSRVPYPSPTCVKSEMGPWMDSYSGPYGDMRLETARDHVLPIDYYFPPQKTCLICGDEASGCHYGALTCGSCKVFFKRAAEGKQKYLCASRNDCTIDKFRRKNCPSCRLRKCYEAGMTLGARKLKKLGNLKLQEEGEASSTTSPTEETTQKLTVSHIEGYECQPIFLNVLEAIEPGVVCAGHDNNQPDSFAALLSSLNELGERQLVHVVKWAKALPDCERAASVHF
Protocol: […]. Levels of expression of AR variant were determined by Western blotting using 10 μg of total protein extracted from same plates (3 wells per condition) using AR-N20 antibody (1:1000) and goat anti-rabbit HRP-conjugated secondary antibody (Santa Cruz Biotechnology; 1:10,000).

AR-YFP = molecular target: T3, AR-YFP (Homo sapiens, UniProt P10275); experiment: AR nuclear translocation (AR-YFP) in LNCaP cells; format: cell-based; settings: 10 μM compound
T3 construct: expressed in transfected cells; host or cells: LNCaP
T3 sequence (P10275 1-920): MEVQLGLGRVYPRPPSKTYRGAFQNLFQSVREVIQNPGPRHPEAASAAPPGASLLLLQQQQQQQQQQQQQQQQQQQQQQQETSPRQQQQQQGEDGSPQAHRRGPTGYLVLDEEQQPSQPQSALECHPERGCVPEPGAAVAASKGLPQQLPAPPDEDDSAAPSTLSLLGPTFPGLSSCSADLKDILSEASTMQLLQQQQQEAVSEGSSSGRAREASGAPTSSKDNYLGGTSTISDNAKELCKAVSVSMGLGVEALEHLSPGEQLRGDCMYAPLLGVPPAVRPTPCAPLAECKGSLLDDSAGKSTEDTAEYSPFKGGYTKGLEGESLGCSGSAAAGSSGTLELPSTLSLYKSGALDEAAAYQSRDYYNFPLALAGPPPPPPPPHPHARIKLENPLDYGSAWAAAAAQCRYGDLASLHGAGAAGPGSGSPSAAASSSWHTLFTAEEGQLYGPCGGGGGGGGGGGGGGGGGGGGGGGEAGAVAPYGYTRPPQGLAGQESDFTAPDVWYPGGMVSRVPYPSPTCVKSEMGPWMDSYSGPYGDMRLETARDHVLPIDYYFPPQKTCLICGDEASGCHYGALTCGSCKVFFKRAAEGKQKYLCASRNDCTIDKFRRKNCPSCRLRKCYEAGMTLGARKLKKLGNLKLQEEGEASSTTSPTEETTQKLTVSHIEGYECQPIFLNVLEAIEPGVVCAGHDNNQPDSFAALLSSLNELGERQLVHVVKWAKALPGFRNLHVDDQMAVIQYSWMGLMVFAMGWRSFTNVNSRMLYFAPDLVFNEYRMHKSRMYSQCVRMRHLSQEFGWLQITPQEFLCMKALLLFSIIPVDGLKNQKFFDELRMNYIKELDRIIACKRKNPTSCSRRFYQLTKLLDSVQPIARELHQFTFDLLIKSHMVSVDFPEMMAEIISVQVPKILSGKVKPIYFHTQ
Protocol: Cells were exposed to 1 nM R1881 for an additional 2 h, fixed with paraformaldehyde, and mounted in Vectashield antifade mounting medium with DAPI (H-1200, Vector Laboratories). Cellular localization of AR was examined by fluorescence microscopy using an Axiovert 200 microscope equipped with a YFP filter (excitation, 500/20 nm; emission, 535/30 nm; Zeiss, Toronto, Ontario, Canada). Images were taken using a Axiocam MR camera and the AxioVision 4.4 software (Zeiss, Toronto, ON, Canada).

LNCaP cells = tested on: LNCaP cells; design: method as in PMID 18834139; settings: cited from earlier work

Row | SMILES | competition with Fluoromone for binding to AR LBD (recombinant AR LBD) | AR-V567es transcriptional activities (PB-luciferase) (AR-V567es) | nuclear translocation of AR in the absence of androgen (AR-YFP) | nuclear translocation of AR in the presence of androgen (AR-YFP; 1 nM R1881 2 h) | levels of AR-V567es protein (AR-V567es; COS-1, Western blot) | androgen-dependent growth of LNCaP cells (LNCaP cells)
1 | CC(C)(c1ccc(OC[C@H](O)CO)cc1)c1ccc(OC[C@H](O)CCl)cc1 [EPI-002, reference compound] | did not compete | significantly inhibited | – | – | – | –
2 | CCC(=O)NC(CC(C)C(Cl)(Cl)Cl)C(=O)N1C(=O)C=C(OC)C1CC(C)C(Cl)Cl (centres unmarked) [SINT1, Sintokamide A] | did not compete | significantly inhibited | AR remained cytoplasmic | Androgen induced AR translocation to the nucleus regardless of treatments | not decreased | block
